Experimental findings from publication PMC3672471 (The Biochemical journal, 2009) are described below.

This experiment addresses β-lactoglobulin (Bos taurus, UniProt P02754). The experiment is described as follows: isothermal titration calorimetry. It counts as binding.

β-lactoglobulin, sequence (P02754 17-178): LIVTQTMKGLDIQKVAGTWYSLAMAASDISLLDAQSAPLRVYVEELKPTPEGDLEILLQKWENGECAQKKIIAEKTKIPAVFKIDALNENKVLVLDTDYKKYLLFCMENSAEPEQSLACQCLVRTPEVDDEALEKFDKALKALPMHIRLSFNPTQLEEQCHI

`CCCCCC(=O)OC[C@@H](O)COP(=O)(O)O` [HHGP, 1-hexanoyl-2-hydroxy-sn-glycero-3-phosphate] yielded a Kd of 1.4 µM.
